Test results as given in patent publication US20240376153A1, “CNP CYCLIC PEPTIDE, AND MEDICINE, EXTERNAL PREPARATION AND COSMETIC EACH CONTAINING SAID CYCLIC PEPTIDE” (Igisu Co., Ltd., priority 2015, published 2024).
“Also recorded” adds a separate entry of the source. Positions of bridges follow the written chain, without caps; N, C: chain ends. Residues, ends and D or L forms follow the SMILES beside them. No end group written: not given here.

Legend:
[1] = tested on: nasal cavity, the affected site; assay: Effect on nose of cyclic peptides in which amino acid was substituted; conditions: for irritation upon nasal application: nasal application once/day
Description: The obtained cyclic peptide was combined with purified water at 1, 5, 30, 100, 500 μg/ml and applied to the affected site. Formulations A to E in the tables refers to the cyclic peptide of 1, 5, 30, 100, 500 μg/ml, respectively.

[2] = tested on: normal subjects who have symptoms of lip roughness; assay: Lip mucosal condition after application of C-ring gel formulation; assay type: in vivo, human; conditions: lip roughness (cases I1-I5); 1 μM, 1 application
Description: To normal subjects who have symptoms of lip roughness, the C-ring gel formulation was applied and changes in lip mucosal conditions were observed and summarized in the following table. Changes in the mucosal condition were judged based on based on cenesthesic evaluation by the subject and objective observation by the inventor as a physician.

[3] = tested on: affected site of psoriasis; assay: Effect of C-ring / CNP gel formulation on psoriasis; assay type: in vivo, human; conditions: psoriasis patient P6; after 3 days from the application
Description: Followings are the summary of the therapeutic effects for psoriasis cases. As described above, the C-ring gel formulation was applied to the affected site of psoriasis, and changes in symptoms before and after the application were observed. When possible, as a comparative example, the CNP gel formulation described above was applied onto another affected site of the same subject where the C-ring gel formulation had not been applied, and changes in symptoms before and after the application were observed. Examination result is given in tables below with subjects' age, sex and symptoms, and prescription for the subjects.

Compound	irritation upon nasal application ([1]; Formulation C = 30 μg/ml)	further results
CC[C@H](C)[C@@H]1NC(=O)CNC(=O)[C@H]([C@@H](C)O)NC(=O)[C@H](CCSC)NC(=O)[C@H](CO)NC(=O)CNC(=O)[C@H]([C@@H](C)CC)NC(=O)[C@H](CCCNC(=N)N)NC(=O)[C@H](CC(=O)O)NC(=O)[C@H](CC(C)C)NC(=O)[C@H](CCCCN)NC(=O)[C@H](CC(C)C)NC(=O)CNC(=O)[C@H](Cc2ccccc2)NC(=O)[C@@H](N)CSSC[C@@H](C(=O)O)NC(=O)CNC1=O [SEQ ID NO: 41] (H-CFGLKLDRIGSMTGIGC-OH; disulfide 1-17; N-terminus and C-terminus assumed)	There was no irritation upon nasal application.	–
CC[C@H](C)[C@@H]1NC(=O)CNC(=O)[C@H](CO)NC(=O)[C@H](CCSC)NC(=O)[C@H]([C@@H](C)O)NC(=O)CNC(=O)[C@H]([C@@H](C)CC)NC(=O)[C@H](CCCNC(=N)N)NC(=O)[C@H](CC(=O)O)NC(=O)[C@H](CCSC)NC(=O)[C@H](CCCCN)NC(=O)[C@H](CC(C)C)NC(=O)[C@H](C)NC(=O)[C@H](Cc2ccccc2)NC(=O)[C@@H](N)CSSC[C@@H](C(=O)O)NC(=O)CNC1=O [SEQ ID NO: 58] (H-CFALKMDRIGTMSGIGC-OH; disulfide 1-17; N-terminus and C-terminus assumed)	–	irritation upon nasal application ([1]; Formulation B = 5 μg/ml): There was no irritation upon nasal application.
CC[C@H](C)[C@@H]1NC(=O)CNC(=O)[C@H]([C@@H](C)O)NC(=O)[C@H](CCSC)NC(=O)[C@H](CO)NC(=O)CNC(=O)[C@H]([C@@H](C)CC)NC(=O)[C@H](CCCNC(=N)N)NC(=O)[C@H](CC(=O)O)NC(=O)[C@H](CCSC)NC(=O)[C@H](CCCCN)NC(=O)[C@H](CC(C)C)NC(=O)[C@H](C)NC(=O)[C@H](Cc2ccccc2)NC(=O)[C@@H](N)CSSC[C@@H](C(=O)O)NC(=O)CNC1=O [SEQ ID NO: 59] (H-CFALKMDRIGSMTGIGC-OH; disulfide 1-17; N-terminus and C-terminus assumed)	–	irritation upon nasal application ([1]; Formulation D = 100 μg/ml): upon blowing. There was no irritation upon nasal
CC[C@H](C)[C@@H]1NC(=O)[C@H](CCCNC(=N)N)NC(=O)[C@H](CC(=O)O)NC(=O)[C@H](CCSC)NC(=O)[C@H](CCCCN)NC(=O)[C@H](CC(C)C)NC(=O)[C@H](C)NC(=O)[C@H](Cc2ccccc2)NC(=O)[C@@H](N)CSSC[C@@H](C(=O)O)NC(=O)CNC(=O)[C@H](CC(C)C)NC(=O)CNC(=O)[C@H](CO)NC(=O)[C@H](CCSC)NC(=O)[C@H](CO)NC(=O)CNC1=O [SEQ ID NO. 32] (H-CFALKMDRIGSMSGLGC-OH; disulfide 1-17; N-terminus and C-terminus assumed)	There was no irritation upon nasal application.	–
CC[C@H](C)[C@@H]1NC(=O)[C@H](CCCNC(=N)N)NC(=O)[C@H](CC(=O)O)NC(=O)[C@H](CC(C)C)NC(=O)[C@H](CCCCN)NC(=O)[C@H](CC(C)C)NC(=O)CNC(=O)[C@H](Cc2ccccc2)NC(=O)[C@@H](N)CSSC[C@@H](C(=O)O)NC(=O)CNC(=O)[C@H](CC(C)C)NC(=O)CNC(=O)[C@H](C)NC(=O)[C@H](CCSC)NC(=O)[C@H](CO)NC(=O)CNC1=O [SEQ ID NO: 16] (H-CFGLKLDRIGSMAGLGC-OH; disulfide 1-17; N-terminus and C-terminus assumed)	clear. There was no irritation upon nasal application.	–
CC[C@H](C)[C@@H]1NC(=O)[C@H](CCCNC(=N)N)NC(=O)[C@H](CC(=O)O)NC(=O)[C@H](CC(C)C)NC(=O)[C@H](CCCCN)NC(=O)[C@H](CC(C)C)NC(=O)CNC(=O)[C@H](Cc2ccccc2)NC(=O)[C@@H](N)CSSC[C@@H](C(=O)O)NC(=O)CNC(=O)[C@H](CC(C)C)NC(=O)CNC(=O)[C@H](CO)NC(=O)[C@H](CCSC)NC(=O)[C@H](C)NC(=O)CNC1=O [SEQ ID NO: 11] (H-CFGLKLDRIGAMSGLGC-OH; disulfide 1-17; N-terminus and C-terminus assumed)	There was no irritation upon nasal application.	–
CC[C@H](C)[C@@H]1NC(=O)[C@H](CCCNC(=N)N)NC(=O)[C@H](CC(=O)O)NC(=O)[C@H](CC(C)C)NC(=O)[C@H](CCCCN)NC(=O)[C@H](CC(C)C)NC(=O)[C@H](C)NC(=O)[C@H](Cc2ccccc2)NC(=O)[C@@H](N)CSSC[C@@H](C(=O)O)NC(=O)CNC(=O)[C@H](CC(C)C)NC(=O)CNC(=O)[C@H](CO)NC(=O)[C@H](CCSC)NC(=O)[C@H]([C@@H](C)O)NC(=O)CNC1=O [SEQ ID NO: 33] (H-CFALKLDRIGTMSGLGC-OH; disulfide 1-17; N-terminus and C-terminus assumed)	There was no irritation upon nasal application.	–
CC[C@H](C)[C@@H]1NC(=O)[C@H](CCCNC(=N)N)NC(=O)[C@H](CC(=O)O)NC(=O)[C@H](CC(C)C)NC(=O)[C@H](CCCCN)NC(=O)[C@H](CC(C)C)NC(=O)[C@H](C)NC(=O)[C@H](Cc2ccccc2)NC(=O)[C@@H](N)CSSC[C@@H](C(=O)O)NC(=O)CNC(=O)[C@H](CC(C)C)NC(=O)CNC(=O)[C@H]([C@@H](C)O)NC(=O)[C@H](CCSC)NC(=O)[C@H](CO)NC(=O)CNC1=O [SEQ ID NO: 34] (H-CFALKLDRIGSMTGLGC-OH; disulfide 1-17; N-terminus and C-terminus assumed)	–	irritation upon nasal application ([1]; Formulation B = 5 μg/ml): There was no irritation upon nasal application.
SEEQ ID NO: 3 (CFGLKLDRIGSMSGLGC; disulfide 1-17)	–	Post-treatment diagnostic skin impression ([1]; nasal application for comparison of right and left in one subject, Formulation A = 1 μg/ml, once/day): After 3 min, nasal discharge did not stop; also recorded: After 2 min, nose was not clear
Gly-Leu-Ser-Lys-Gly-Cys-Phe-Gly-Leu-Lys-Leu-Asp-Arg-Ile-Gly-Ser-Met-Ser-Gly-Leu-Gly-Cys (GLSKGCFGLKLDRIGSMSGLGC; disulfide 6-22; listed as Homo sapiens) [CNP, human wild-type C-type natriuretic peptide (American Peptide Company)]	–	Post-application Symptoms [2]: remained on corner of mouth.; Results of two-sided application on lower thighs (FIG. 1) [3]: scales became inconspicuous but still remains, and erythema and infiltration were improved only a little
CC[C@H](C)[C@@H]1NC(=O)[C@H](CCCNC(=N)N)NC(=O)[C@H](CC(=O)O)NC(=O)[C@H](CC(C)C)NC(=O)[C@H](CCCCN)NC(=O)[C@H](CC(C)C)NC(=O)CNC(=O)[C@H](Cc2ccccc2)NC(=O)[C@@H](N)CSSC[C@@H](C(=O)O)NC(=O)CNC(=O)[C@H](C(C)C)NC(=O)CNC(=O)[C@H](CO)NC(=O)[C@H](CCSC)NC(=O)[C@H](CO)NC(=O)CNC1=O [SEQ ID NO: 18] (H-CFGLKLDRIGSMSGVGC-OH; disulfide 1-17; N-terminus and C-terminus assumed)	There was no irritation upon nasal application.	–
CC[C@H](C)[C@@H]1NC(=O)[C@H](CCCNC(=N)N)NC(=O)[C@H](CC(=O)O)NC(=O)[C@H](CC(C)C)NC(=O)[C@H](CCCCN)NC(=O)[C@H](CC(C)C)NC(=O)CNC(=O)[C@H](Cc2ccccc2)NC(=O)[C@@H](N)CSSC[C@@H](C(=O)O)NC(=O)CNC(=O)[C@H](CC(C)C)NC(=O)CNC(=O)[C@H]([C@@H](C)O)NC(=O)[C@H](CCSC)NC(=O)[C@H]([C@@H](C)O)NC(=O)CNC1=O [SEQ ID NO: 39] (H-CFGLKLDRIGTMTGLGC-OH; disulfide 1-17; N-terminus and C-terminus assumed)	upon blowing. There was no irritation upon nasal	–
CC[C@H](C)[C@@H]1NC(=O)CNC(=O)[C@H](CO)NC(=O)[C@H](CCSC)NC(=O)[C@H]([C@@H](C)O)NC(=O)CNC(=O)[C@H]([C@@H](C)CC)NC(=O)[C@H](CCCNC(=N)N)NC(=O)[C@H](CC(=O)O)NC(=O)[C@H](CCSC)NC(=O)[C@H](CCCCN)NC(=O)[C@H](CC(C)C)NC(=O)CNC(=O)[C@H](Cc2ccccc2)NC(=O)[C@@H](N)CSSC[C@@H](C(=O)O)NC(=O)CNC1=O [SEQ ID NO: 52] (H-CFGLKMDRIGTMSGIGC-OH; disulfide 1-17; N-terminus and C-terminus assumed)	clear. There was no irritation upon nasal application.	–
CC[C@H](C)[C@@H]1NC(=O)[C@H](CCCNC(=N)N)NC(=O)[C@H](CC(=O)O)NC(=O)[C@H](CC(C)C)NC(=O)[C@H](CCCCN)NC(=O)[C@H](CC(C)C)NC(=O)CNC(=O)[C@H](Cc2ccccc2)NC(=O)[C@@H](N)CSSC[C@@H](C(=O)O)NC(=O)CNC(=O)[C@H](CCSC)NC(=O)CNC(=O)[C@H](CO)NC(=O)[C@H](CCSC)NC(=O)[C@H](CO)NC(=O)CNC1=O [SEQ ID NO: 20] (H-CFGLKLDRIGSMSGMGC-OH; disulfide 1-17; N-terminus and C-terminus assumed)	There was no irritation upon nasal application.	–
